In ChEMBL document CHEMBL2046386, “Potent and selective aminopyrimidine-based B-Raf inhibitors with favorable physicochemical and pharmacokinetic properties” (J Med Chem, 2012):
In brackets after ≈: the same amount, converted by molar mass.

Assays:
[1] = molecular target: T1, Serine/threonine-protein kinase B-raf (Homo sapiens, UniProt P15056, V600E); test: Inhibition of B-raf V600E mutant-mediated Erk phosphorylation in human MALM-3M cells by fluorometric analysis; assay type: cell-based
[2] = Thermodynamic solubility of the compound at 0.5 mg/ml after 24 hrs by shake flask method at pH 1.2; assay type: physicochemical; conditions: buffer, read-out: Therm_solubility
[3] = molecular target: T1, Serine/threonine-protein kinase B-raf; test: Inhibition of His6X-tagged human B-raf V600E mutant expressed in baculovirus infected insect cells coexpressing […] using [gamma33P]ATP after 60 mins by scintillation counting

T1 sequence (P15056 2-766 V600E limits assumed): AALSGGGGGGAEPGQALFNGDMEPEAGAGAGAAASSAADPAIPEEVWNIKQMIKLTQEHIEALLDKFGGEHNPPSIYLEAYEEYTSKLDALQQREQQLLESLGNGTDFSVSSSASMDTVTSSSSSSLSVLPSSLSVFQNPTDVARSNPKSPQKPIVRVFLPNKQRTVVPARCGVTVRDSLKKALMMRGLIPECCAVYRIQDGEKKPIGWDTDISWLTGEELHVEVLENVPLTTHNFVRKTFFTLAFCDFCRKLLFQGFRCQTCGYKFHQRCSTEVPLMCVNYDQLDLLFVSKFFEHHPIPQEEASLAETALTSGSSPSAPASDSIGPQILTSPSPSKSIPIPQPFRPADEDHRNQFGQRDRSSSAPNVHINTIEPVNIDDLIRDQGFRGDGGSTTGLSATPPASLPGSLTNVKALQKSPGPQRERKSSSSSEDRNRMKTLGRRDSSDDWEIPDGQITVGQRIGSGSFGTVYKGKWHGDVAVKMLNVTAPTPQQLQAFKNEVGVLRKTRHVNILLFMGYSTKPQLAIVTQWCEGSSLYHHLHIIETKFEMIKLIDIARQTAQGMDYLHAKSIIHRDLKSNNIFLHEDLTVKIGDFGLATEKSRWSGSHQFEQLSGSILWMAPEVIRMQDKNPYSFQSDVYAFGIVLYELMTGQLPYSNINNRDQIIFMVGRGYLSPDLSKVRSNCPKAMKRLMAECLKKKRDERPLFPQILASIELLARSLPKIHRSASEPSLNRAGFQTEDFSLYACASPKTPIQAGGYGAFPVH

SMILES | IC50 [1] | solubility thermodynamic at 24 h [2] | IC50 [3]
CCCS(=O)(=O)Nc1ccc(F)c(NC(=O)Nc2cc(NCCO)ncn2)c1F | 3.4 µM | 900 µg/mL (≈ 2090 µM) | –
CCCS(=O)(=O)Nc1ccc(F)c(NC(=O)N(C)c2cc(N)ncn2)c1F | 0.24 µM | – | –
CCCS(=O)(=O)Nc1ccc(F)c(NC(=O)Nc2cc(N)ncn2)c1F | 0.438 µM | – | –
CCCS(=O)(=O)Nc1ccc(F)c(NC(=O)Nc2cc(NC)ncn2)c1F | 0.168 µM | 900 µg/mL (≈ 2250 µM) | 0.036 µM
CCCS(=O)(=O)Nc1ccc(F)c(NC(=O)c2csc3c(N)ncnc23)c1Cl | 0.015 µM | – | 0.0011 µM
Nc1ncnc2c(C(=O)Nc3c(Cl)ccc(NS(=O)(=O)CCCF)c3F)cccc12 | 0.0025 µM | – | 0.00011 µM
CCCS(=O)(=O)Nc1ccc(F)c(NC(=O)c2cccc3c(N)ncnc23)c1Cl | 0.0077 µM | – | 0.00054 µM
